# Columns and labels:
# Type in all cases: in vivo
# [1] = system: Solanum nigrum (SOLNI); assay: Post-emergence herbicidal glasshouse test on Solanum nigrum; details: post-emergence; 1000 g/h; evaluated after 13 days
# Method in brief: (§1)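 Scored on a five-point scale (1 = 0-19% to 5 = 80-100% damage) 13 days after treatment. Application rate 1000 g/h in acetone/water (50:50) containing 0.5% Tween 20, sprayed one day post-sowing for pre-emergence or eight days for post-emergence; glasshouse at 24/16° C, 14 h light, 65% humidity.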
# [2] = system: Ipomoea hederacea (IPOHE); assay: Pre-emergence herbicidal glasshouse test on Ipomoea hederacea; details: pre-emergence; 1000 g/h; evaluated after 13 days
# Method in brief: as §1
# [3] = system: Setaria faberi (SETFA); assay: Pre-emergence herbicidal glasshouse test on Setaria faberi; details: pre-emergence; 1000 g/h; evaluated after 13 days
# Method in brief: as §1
# [4] = system: Solanum nigrum (SOLNI); assay: Pre-emergence herbicidal glasshouse test on Solanum nigrum; details: pre-emergence; 1000 g/h; evaluated after 13 days
# Method in brief: as §1
# [5] = system: Amaranthus retoflexus (AMARE); assay: Post-emergence herbicidal glasshouse test on Amaranthus retoflexus; details: post-emergence; 1000 g/h; evaluated after 13 days
# Method in brief: as §1
# [6] = system: Alopecurus myosuroides (ALOMY); assay: Post-emergence herbicidal glasshouse test on Alopecurus myosuroides; details: post-emergence; 1000 g/h; evaluated after 13 days
# Method in brief: as §1
# [7] = system: Alopecurus myosuroides (ALOMY); assay: Pre-emergence herbicidal glasshouse test on Alopecurus myosuroides; details: pre-emergence; 1000 g/h; evaluated after 13 days
# Method in brief: as §1
# [8] = system: Echinochloa crus-galli (ECHCG); assay: Pre-emergence herbicidal glasshouse test on Echinochloa crus-galli; details: pre-emergence; 1000 g/h; evaluated after 13 days
# Method in brief: as §1
# [9] = system: Ipomoea hederacea (IPOHE); assay: Post-emergence herbicidal glasshouse test on Ipomoea hederacea; details: post-emergence; 1000 g/h; evaluated after 13 days
# Method in brief: as §1
# [10] = system: Amaranthus retoflexus (AMARE); assay: Pre-emergence herbicidal glasshouse test on Amaranthus retoflexus; details: pre-emergence; 1000 g/h; evaluated after 13 days
# Method in brief: as §1
# [11] = system: Setaria faberi (SETFA); assay: Post-emergence herbicidal glasshouse test on Setaria faberi; details: post-emergence; 1000 g/h; evaluated after 13 days
# Method in brief: as §1
# [12] = system: Echinochloa crus-galli (ECHCG); assay: Post-emergence herbicidal glasshouse test on Echinochloa crus-galli; details: post-emergence; 1000 g/h; evaluated after 13 days
# Method in brief: as §1
Compound,POST Application SOLNI herbicidal damage (five point scale) [1],PRE Application IPOHE herbicidal damage (five point scale) [2],PRE Application SETFA herbicidal damage (five point scale) [3],PRE Application SOLNI herbicidal damage (five point scale) [4],POST Application AMARE herbicidal damage (five point scale) [5],POST Application ALOMY herbicidal damage (five point scale) [6],PRE Application ALOMY herbicidal damage (five point scale) [7],PRE Application ECHCG herbicidal damage (five point scale) [8],POST Application IPOHE herbicidal damage (five point scale) [9],PRE Application AMARE herbicidal damage (five point scale) [10],POST Application SETFA herbicidal damage (five point scale) [11],POST Application ECHCG herbicidal damage (five point scale) [12]
CSc1ccc(-c2c(C(F)(F)F)ccn(-c3cnn(C)c(=O)c3O)c2=O)cc1 [Compound 7.036],5 (5=80-100% damage),4 (4=60-79% damage),2 (2=20-39% damage),5 (5=80-100% damage),5 (5=80-100% damage),2 (2=20-39% damage),2 (2=20-39% damage),1 (1=0-19% damage),4 (4=60-79% damage),5 (5=80-100% damage),3 (3=40-59% damage),4 (4=60-79% damage)
Cc1cc(-c2cnn(C)c(=O)c2O)c(=O)n(-c2ccsc2)c1 [Compound 6.002],3 (3=40-59% damage),2 (2=20-39% damage),1 (1=0-19% damage),5 (5=80-100% damage),4 (4=60-79% damage),1 (1=0-19% damage),1 (1=0-19% damage),1 (1=0-19% damage),2 (2=20-39% damage),5 (5=80-100% damage),1 (1=0-19% damage),1 (1=0-19% damage)
CC(C)n1ncc(-c2ccc(S(C)(=O)=O)c(C3=NOCC3)c2Cl)c(O)c1=O [Compound 1.014],5 (5=80-100% damage),2 (2=20-39% damage),5 (5=80-100% damage),5 (5=80-100% damage),5 (5=80-100% damage),5 (5=80-100% damage),5 (5=80-100% damage),5 (5=80-100% damage),5 (5=80-100% damage),5 (5=80-100% damage),5 (5=80-100% damage),5 (5=80-100% damage)
Cn1ncc(-c2ccc(S(C)(=O)=O)c(OCC(F)(F)F)c2Cl)c(O)c1=O [Compound 1.137],5 (5=80-100% damage),1 (1=0-19% damage),1 (1=0-19% damage),3 (3=40-59% damage),5 (5=80-100% damage),1 (1=0-19% damage),1 (1=0-19% damage),1 (1=0-19% damage),5 (5=80-100% damage),2 (2=20-39% damage),5 (5=80-100% damage),5 (5=80-100% damage)
COCCn1cccc(-c2cnn(C)c(=O)c2O)c1=O [Compound 9.009],5 (5=80-100% damage),1 (1=0-19% damage),1 (1=0-19% damage),1 (1=0-19% damage),4 (4=60-79% damage),2 (2=20-39% damage),1 (1=0-19% damage),1 (1=0-19% damage),3 (3=40-59% damage),1 (1=0-19% damage),3 (3=40-59% damage),3 (3=40-59% damage)
Cn1ncc(-n2ccc(C(F)(F)F)c(-c3ccc(C(F)(F)F)cc3)c2=O)c(O)c1=O [Compound 7.035],5 (5=80-100% damage),3 (3=40-59% damage),5 (5=80-100% damage),5 (5=80-100% damage),5 (5=80-100% damage),5 (5=80-100% damage),5 (5=80-100% damage),5 (5=80-100% damage),4 (4=60-79% damage),5 (5=80-100% damage),5 (5=80-100% damage),5 (5=80-100% damage)
Cn1ncc(-c2ccc(C(F)(F)F)nc2Oc2ccccc2)c(O)c1=O [Compound 4.008],5 (5=80-100% damage),1 (1=0-19% damage),1 (1=0-19% damage),1 (1=0-19% damage),5 (5=80-100% damage),1 (1=0-19% damage),1 (1=0-19% damage),1 (1=0-19% damage),4 (4=60-79% damage),5 (5=80-100% damage),2 (2=20-39% damage),2 (2=20-39% damage)
Cn1ncc(-c2ccc(Cl)cc2[N+](=O)[O-])c(O)c1=O [Compound 1.109],4 (4=60-79% damage),1 (1=0-19% damage),1 (1=0-19% damage),2 (2=20-39% damage),5 (5=80-100% damage),1 (1=0-19% damage),1 (1=0-19% damage),1 (1=0-19% damage),4 (4=60-79% damage),5 (5=80-100% damage),1 (1=0-19% damage),2 (2=20-39% damage)
Cc1cc(-c2cnn(C)c(=O)c2O)c(C)c2c1S(=O)(=O)CCC21OCCO1 [Compound 1.031],5 (5=80-100% damage),1 (1=0-19% damage),4 (4=60-79% damage),2 (2=20-39% damage),5 (5=80-100% damage),2 (2=20-39% damage),1 (1=0-19% damage),5 (5=80-100% damage),5 (5=80-100% damage),5 (5=80-100% damage),5 (5=80-100% damage),5 (5=80-100% damage)
Cc1cc(Cl)ccc1-c1cnn(C)c(=O)c1O [Compound 1.082],4 (4=60-79% damage),1 (1=0-19% damage),1 (1=0-19% damage),1 (1=0-19% damage),2 (2=20-39% damage),1 (1=0-19% damage),1 (1=0-19% damage),1 (1=0-19% damage),2 (2=20-39% damage),1 (1=0-19% damage),1 (1=0-19% damage),1 (1=0-19% damage)
